# Laboratory results reported in patent US9192601B2, “Methods for enhancing muscle performance and tone” (Salk Institute for Biological Studies, priority 2006, dated 2015).
# “Also recorded” adds a separate entry of the source.
# Key:
# Format in all cases: in vivo, mouse
# [1] = tested on: quadriceps muscle; assay: Real time quantitative PCR of gene expression in quadriceps muscle
# Experimental: Animals were euthanized by carbon dioxide asphyxiation 72 hours after the final treatment. Gastrocnemius and quadriceps muscles were isolated, frozen and stored at −80° C. for future analysis. Total RNA was prepared from quadriceps muscle using TRIzoL™ reagent (Invitrogen, Carlsbad, Calif., USA) in conformance with manufacturer's instructions. Real time quantitative PCR (QPCR) was used to determine expression levels of uncoupling protein 3 (UCP3), muscle carnitine palmitoyl transferase I (mCPT I) and pyruvate dehydrogenase kinase 4 (PDK4) using primers known to those of ordinary skill in the art.
# In addition to affecting the contractile apparatus of skeletal muscle, exercise training also increases skeletal muscle mitochondrial density (e.g., Freyssenet et al., Arch. Physiol. Biochem., 104(2): 129-141, 1996). […] Mice in all groups were acclimated to moderate treadmill running and basal running endurance was determined as described in Example 1. Thereafter, mice in the exercise-trained groups received four weeks (5 days/week) of exercise training on a treadmill inclined at 5 degrees. […] At the end of four weeks, all exercise-trained mice were running for 50 min/day at 18 m/min. […] Unless otherwise noted, V, GW, Tr and GW+Tr subjects described in this and the examples below were similarly treated. At the end of the drug treatment and/or training protocol (Week 5) 6 mice per group were subjected to the running test. […] RNA was prepared real time quantitative PCR performed as described in Example 1.
# [2] = tested on: type I (slow oxidative) muscle fibers; assay: Meta-chromatic staining of gastrocnemius fiber types
# Excerpt: In this assay, muscle fibers with high ATPase activity {e.g., type I (slow oxidative) muscle fibers) are darkly stained.
# [3] = tested on: mitochondrial DNA; assay: Mitochondrial DNA expression by QPCR
# Experimental: In addition to its effects on the fiber type, exercise training increased skeletal muscle mitochondrial biogenesis, which can be measured as a function of mitochondrial DNA expression levels using quantitative real time PCR (QPCR). Mitochondrial DNA expression levels were determined in muscles of V, GW, Tr, and GW+Tr subjects using quantitative real time PCR. […] Such an increase is known to contribute to enhanced endurance capacity (e.g., Holloszy, Med. Sci. Sports 7:155-64, 1975). Slow-twitch and fast-twitch muscle fiber types also can be distinguished by myosin isoform expression (Gauthier and Lowey, J. Cell Biol. 81:10-25, 1979; Fitzsimons and Hoh, Biochem. J. 193:229-33, 1981). […] Therefore, at least at the transcriptional level, the PPARδ agonist was capable of inducing some proteins characteristic of a slow-twitch muscle fiber phenotype.
# [4] = Muscle triglyceride (mTG) content
# Experimental: Altered triglycerides can be used to access changes in muscle oxidative capacity. Muscle triglyceride (mTG) content was measured as previously described (Wang et al., PLoC Biol, 2:e294, 2004) using a kit from Thermo Electron Corporation. […] Gene and/or protein expression that is induced by a combination of exercise and drug treatment (e.g., PPARδ agonist administration) but not by either input alone is believed to be a new discovery. This type of response can be used to further characterize the intersection of pharmacologic and physiologic genetic networks. For example, one or more genes and/or proteins uniquely regulated by one or more drugs {e.g., PPARδ agonists) and exercise can be used as markers, for instance, of illicitly boosting performance in professional and/or amateur athletes.
# [5] = tested on: epididymal white adipose; assay: Epididymal fat to body weight ratio and H&E staining of white adipose; details: GW1516 in combination with exercise
# Experimental: Hematoxylin and eosin (H&E) staining of white adipose tissue paraffin sections was performed as previously described (Wang et al., PLoS Biol., 2:e294, 2004; Wang et al., Cell, 113:159-70, 2003).
# [6] = tested on: AMPK; assay: Western blot of phospho-AMPK in quadriceps; details: sedentary or trained muscles
# Excerpt: (§1) Exercise training is known to activate kinases, such as p44/42 MAPK and AMPK, which regulate gene expression in skeletal muscle (Chen et al., Diabetes, 52:2205-12, 2003; Goodyear et al., Am. J. Physiol, 271:[…]-8, 1996). AMPK affects skeletal muscle gene expression and oxidative metabolism (Chen et al., Diabetes. 52: 2205-12, 2003, Reznick et al., J. Physiol. 574: 33-9, 2006). The interaction between exercise-regulated kinases and PPARδ signaling is described in this Example. The levels of phospho-p44/42 MAPK and phospho-AMPK a subunit and total AMPK were determined in protein homogenates of quadriceps muscle by Western blot. Antibodies specific for phospho-p44/42 MAPK, phospho- and total-AMPK αl antibodies were obtained from Cell Signaling. The phospho-specific AMPK αl antibody recognizes the key activating threonine in the activation loop.
# [7] = tested on: p44/42 MAPK; assay: Western blot of phospho-p44/42 MAPK in quadriceps; details: sedentary or trained muscles
# Excerpt: as §1
smiles,measurement,setting,value
"Cc1cc(SCc2sc(-c3ccc(C(F)(F)F)cc3)nc2C)ccc1OCC(=O)O [GW1516, (2-methyl-4(((4-methyl-2-(4-trifluoromethylphenyl)-1,3-thiazol-5-yl)methyl)sulfanyl)phenoxy)acetic acid]","earliest detection of changes in UCP3, mCPT I, PDK4 expression",[1]; 2-5 mg/kg/day,4 days
same,"expression of SCDl, FAS, SREBPIc, FAT/CD36, LPL",[1]; GW1516 alone,no response
same,"expression of UCP3, mCPT I, and PDK4","[1]; GW1516 alone, four weeks, quadriceps",induced; also recorded: upregulated
same,"expression of SCDl, FAS, SREBPIc, FAT/CD36, LPL",[1]; GW1516 combined with exercise,robustly induced
same,"expression of UCP3, mCPT I, and PDK4",[1]; GW1516 with exercise vs GW1516 alone,no further induction
same,number of type I muscle fibers in exercised muscle,[2]; GW1516 treatment and exercise training,significantly increased
same,proportion of type I muscle fibers vs vehicle,"[2]; sedentary mice, gastrocnemius",no significant difference
same,increase in proportion of type I fibers vs vehicle-treated sedentary mice,[2]; trained mice,38%
same,increase in mitochondrial DNA expression,[3]; combination of exercise and GW1516,approximately 50%
same,mitochondrial DNA expression,[3]; drug alone,not changed
same,exercise-induced increase in muscle triglycerides,[4]; GW1516-treated exercise trained mice,completely reversed
same,mTG content vs vehicle,[4]; sedentary mice,comparable
same,cross-sectional area of the adipocytes,[5],decreased
same,activation of AMPK,[6],failed to activate
same,activation of p44/42,[7],failed to activate
